Measurements published in patent US20220235073A1, “ARTEMISININ-DERIVATIVE N-HETEROCYCLIC CARBENE GOLD(I) HYBRID COMPLEXES” (CENTRE NATIONAL DE LA RECHERCHE SCIENTIFIQUE, priority 2019, published 2022).

Experiments:
[1] = test system: PC-3 human prostate cancer cells; assay: Cell viability MTT assay, PC-3; assay type: cell-based; details: for GI50: 72 h, MTT assay
[2] = test system: NIH3T3 murine fibroblast cells; assay: Cell viability MTT assay, NIH3T3; assay type: cell-based; details: for GI50: 72 h, MTT assay; for Selectivity index NIH3T3: SI = GI50 (non-cancer cell line NIH3T3)/GI50 (cancer cell line PC-3)
Protocol: (§1) HepG-2 human liver cancer cells were cultured in EMEM containing 10% of FBS, 1% of nonessential amino acids, 1 mM of Na-pyruvate, 1% of PenStrep antibiotics and 600 μg/mL of Geneticin. A549 human lung carcinoma cells, T24 human bladder carcinoma cells, MCF-7 human breast adenocarcinoma cells, U-2OS human osteosarcoma and NIH3T3 murine fibroblast cells were cultured in DMEM medium containing 10% fetal bovine serum and 1% antibiotics at 37° C. in 5% CO2 humidified incubators. MC3T3 mouse osteoblast cells were cultured in MEM medium containing 10% fetal bovine serum and 1% antibiotics at 37° C. in 5% CO2 humidified incubators. RWPE-1 human prostate normal cells were cultured in K-SFM medium containing 0.05 mg/ml bovine pituitary extract (BPE) and 5 ng/ml epidermal growth factor (EGF) at 37° C. in 5% CO2 humidified incubators. The MTT reagent (3-(4,5-dimethylthiazol-2-yl)-2,5-diphenyltetrazolium bromide) was used to determine cell death as originally described by Mosmaneland modified by Cuvillier et al.^[6] Briefly, cells were seeded 5,000 to 10,000 cells/well in 24-well plates depending on the cell type and allowed to attach overnight. All of the complexes were dissolved in DMSO. The concentration of the complexes was calculated according to the elemental composition of the complexes determined by the elemental analyses. Media in the presence of the tested complexes were added and serially diluted to various concentrations (from 5 μM to 0.01 μM). Next to these concentrations, for DHA 50, 20 and 10 μM and for the cationic bisNHC gold(I) complex 3 0.001 μM have been used. […] After 72 h of treatment, cells were incubated at 37° C. and 5% CO2 with 25 μL MTT solution (5 mg/mL; Sigma-Aldrich) in 24-well plates for approximately 3 to 4 h. After solubilization with 500 μL of lysis buffer (DMSO), formazan was quantified by spectrophotometry with a microplate reader at 570 nm absorbance. […] All the results were calculated from data obtained in three independent experiments.

[3] = test system: RWPE-1 human prostate normal cells; assay: Cell viability MTT assay, RWPE-1; assay type: cell-based; details: for GI50: 72 h, MTT assay; for Selectivity index RWPE-1: SI = GI50 (RWPE-1)/GI50 (PC-3)
Protocol: as §1

[4] = test system: HL60 (acute myeloid leukemia); assay: Cell viability MTT assay, HL60; assay type: cell-based
Protocol: (§2) PC-3 human prostate cancer cells, and LAMA chronic myeloid leukemia were cultured in RPMI 1640 containing 10% fetal bovine serum and 1% antibiotics (100 U/mL penicillin and 100 μg/mL streotimycin) at 37° C. in 5% CO2 humidified incubators. HL60 […] were cultured in RPMI 1640 containing 15% fetal bovine serum and 1% antibiotics (100 U/mL penicillin and 100 μg/mL streotimycin) at 37° C. in 5% CO2 humidified incubators. HepG-2 human liver cancer cells were cultured in EMEM containing 10% of FBS, 1% of nonessential amino acids, 1 mM of Na-pyruvate, 1% of PenStrep antibiotics and 600 μg/mL of Geneticin. A549 human lung carcinoma cells, T24 human bladder carcinoma cells, MCF-7 human breast adenocarcinoma cells, U-2OS human osteosarcoma and NIH3T3 murine fibroblast cells were cultured in DMEM medium containing 10% fetal bovine serum and 1% antibiotics at 37° C. in 5% CO2 humidified incubators. MC3T3 mouse osteoblast cells were cultured in MEM medium containing 10% fetal bovine serum and 1% antibiotics at 37° C. in 5% CO2 humidified incubators. RWPE-1 human prostate normal cells were cultured in K-SFM medium containing 0.05 mg/ml bovine pituitary extract (BPE) and 5 ng/ml epidermal growth factor (EGF) at 37° C. in 5% CO2 humidified incubators. The MTT reagent (3-(4,5-dimethylthiazol-2-yl)-2,5-diphenyltetrazolium bromide) was used to determine cell death as originally described by Mosmaneland modified by Cuvillier et al.^[6] Briefly, cells were seeded 5,000 to 10,000 cells/well in 24-well plates depending on the cell type and allowed to attach overnight. All of the complexes were dissolved in DMSO. The concentration of the complexes was calculated according to the elemental composition of the complexes determined by the elemental analyses. Media in the presence of the tested complexes were added and serially diluted to various concentrations (from 5 μM to 0.01 μM). Next to these concentrations, for DHA 50, 20 and 10 μM and for the cationic bisNHC gold(I) complex 3 0.001 μM have been used. […] After 72 h of treatment, cells were incubated at 37° C. and 5% CO2 with 25 μL MTT solution (5 mg/mL; Sigma-Aldrich) in 24-well plates for approximately 3 to 4 h. After solubilization with 500 μL of lysis buffer (DMSO), formazan was quantified by spectrophotometry with a microplate reader at 570 nm absorbance. The GI50 values corresponding to the concentration that caused 50% inhibition of cell proliferation were calculated from dose-response curves obtained by nonlinear regression analysis (Prism 8, Graphpad Software). All the results were calculated from data obtained in three independent experiments.

[5] = test system: LAMA chronic myeloid leukemia; assay: Cell viability MTT assay, LAMA; assay type: cell-based, human
Protocol: as §2

[6] = test system: Tumor cell models; assay: MTT assay, panel of tumor cell models; assay type: cell-based, human; details: mean of PC-3, A549, U2OS, T24, MCF-7, LAMA, HL60
Protocol: (§3) PC-3 human prostate cancer cells, and LAMA chronic myeloid leukemia were cultured in RPMI 1640 containing 10% fetal bovine serum and 1% antibiotics (100 U/mL penicillin and 100 μg/mL streotimycin) at 37° C. in 5% CO2 humidified incubators. HL60 […] were cultured in RPMI 1640 containing 15% fetal bovine serum and 1% antibiotics (100 U/mL penicillin and 100 μg/mL streotimycin) at 37° C. in 5% CO2 humidified incubators. HepG-2 human liver cancer cells were cultured in EMEM containing 10% of FBS, 1% of nonessential amino acids, 1 mM of Na-pyruvate, 1% of PenStrep antibiotics and 600 μg/mL of Geneticin. A549 human lung carcinoma cells, T24 human bladder carcinoma cells, MCF-7 human breast adenocarcinoma cells, U-2OS human osteosarcoma and NIH3T3 murine fibroblast cells were cultured in DMEM medium containing 10% fetal bovine serum and 1% antibiotics at 37° C. in 5% CO2 humidified incubators. MC3T3 mouse osteoblast cells were cultured in MEM medium containing 10% fetal bovine serum and 1% antibiotics at 37° C. in 5% CO2 humidified incubators. RWPE-1 human prostate normal cells were cultured in K-SFM medium containing 0.05 mg/ml bovine pituitary extract (BPE) and 5 ng/ml epidermal growth factor (EGF) at 37° C. in 5% CO2 humidified incubators. The MTT reagent (3-(4,5-dimethylthiazol-2-yl)-2,5-diphenyltetrazolium bromide) was used to determine cell death as originally described by Mosmaneland modified by Cuvillier et al.^[6] Briefly, cells were seeded 5,000 to 10,000 cells/well in 24-well plates depending on the cell type and allowed to attach overnight. All of the complexes were dissolved in DMSO. The concentration of the complexes was calculated according to the elemental composition of the complexes determined by the elemental analyses. […] After solubilization with 500 μL of lysis buffer (DMSO), formazan was quantified by spectrophotometry with a microplate reader at 570 nm absorbance. […] All the results were calculated from data obtained in three independent experiments.

[7] = test system: NF-κB transcription factor induced by TNFalpha; assay: NF-kB transcriptional activity, NF-kB Reporter (Luc)-A549 stable cell line; assay type: cell-based, human; details: NF-kB Reporter A549 cells, 1 ng/ml TNFα, 7 hours; read-out: IC50, inhibition of NF-κB transcription factor induced by TNFalpha
Protocol: The NF-kB Reporter (Luc)—A549 Stable Cell Line was used to quantify the inhibitory effects of the indicated doses of the molecules of the invention on transcriptional activity of NF-kB activated by 1 ng/ml TNFα (7 hours of treatment).
Luminescence was read using a luminometer and readings were normalized to wells that only contain media to obtain the Relative Luminescence Units (RLUs).
9. NF-kB Transcriptional Activity

[8] = test system: MCF-7 human breast adenocarcinoma cells; assay: Cell viability MTT assay, MCF-7; assay type: cell-based
Protocol: as §2

[9] = test system: U-2OS human osteosarcoma; assay: Cell viability MTT assay, U-2OS; assay type: cell-based
Protocol: as §2

[10] = test system: Non tumoral cell models (MC3-T3, NIH3T3, RWPE1); assay: MTT assay, mean over non tumoral cell models; assay type: cell-based; details: mean of MC3-T3, NIH3T3, RWPE1
Protocol: as §3

[11] = test system: T24 human bladder carcinoma cells; assay: Cell viability MTT assay, T24; assay type: cell-based
Protocol: as §2

[12] = test system: HepG-2 human liver cancer cells; assay: Cell viability MTT assay, HepG-2; assay type: cell-based; details: 72 h
Protocol: as §3

[13] = test system: A549 human lung carcinoma cells; assay: Cell viability MTT assay, A549; assay type: cell-based
Protocol: as §2

[14] = test system: MC3T3 mouse osteoblast cells; assay: Cell viability MTT assay, MC3T3; assay type: cell-based
Protocol: as §2

[15] = test system: Nrf2; assay: NRF2 transcriptional activity, ARE Reporter Hep G2 cell line; assay type: cell-based, human; details: ARE Reporter Hep G2 cells, 16 hours, any dose
Protocol: The ARE Reporter Hep G2 cell line containing a firefly luciferase gene under the control of ARE stably integrated into Hep G2 cells was used to quantify NRF2 transcriptional activity after 16 hours of treatment with the indicated doses of the different complexes. The results are shown as fold induction of ARE luciferase reporter expression. Dashed line indicates a fold induction of 1 (values >1 mean activation and values <1 mean inhibition).
ARE-reporter-HepG-2 cells were harvested from culture in Growth Medium 1K and they were seeded at a concentration of 40,000 cells/well into white clear-bottom 96-well microplate in 45 μL of Growth Medium 1K without Geneticin. Cells were allowed to attach overnight and then treated with different concentrations of complex 2a (from 0.01 μM to 20 μM), auranofin (from 0.01 μM to 20 μM) or DHA (from 0.01 μM to 3, 5, 10, 20 and 50 μM), and complex (from 0.01 μM to 20 μM). After incubation at 37° C. and 5% CO2 for 16 hours, ONE-Step luciferase assay reagent (100 μL) was added and rock at room temperature for over 15 minutes. Then the luminescence of each well was determined by CLARIOstar microplate reader to quantify induction of ARE. Three independent experiments were performed as biological triplicates. The results are in FIG. 4.

[16] = ratio of IC50, tumoral versus non tumoral cells of same tissue

## 3′-methyl-1′-[10β-(20-propoxy)dihydroartemisin]1H-imidazol-3-ium bromide [Compound 1a]
[1]
  GI50: > 20000 nM
[2]
  GI50: > 20000 nM
[3]
  GI50: > 20000 nM

## 3′-methyl-1′-[10β-(21-butoxy)dihydroartemisin]1H-imidazol-3-ium bromide [Compound 1b]
[1]
  GI50: > 20000 nM
[2]
  GI50: > 20000 nM
[3]
  GI50: > 20000 nM

## 3′-methyl-1′-[10β-(22-pentoxy)dihydroartemisin]1H-imidazol-3-ium bromide [Compound 1c]
[1]
  GI50: > 20000 nM
[2]
  GI50: > 20000 nM
[3]
  GI50: 3740 nM

## C[C@@H]1CCC2[C@@H](C)[C@@H](OCCCn3cc[n+](C)[c]3[Au-][c]3n(CCCO[C@H]4O[C@@H]5O[C@]6(C)CCC7[C@H](C)CCC([C@H]4C)[C@]75OO6)cc[n+]3C)O[C@@H]3O[C@]4(C)CCC1[C@@]23OO4.O=[N+]([O-])[O-] (some centres unmarked) [Compound 2a]
[4]; 72 h, MTT assay
  GI50: 22 nM
[4]; Table 3, tumor cell model
  IC50: 22 nM
[1]
  GI50: 70 nM
[1]; Table 3, tumor cell model
  IC50: 70 nM
[2]
  GI50: 1130 nM
  Selectivity index NIH3T3: 16.1
[2]; Table 3, non tumoral cell model, read-out: IC50 NIH3T3 (fibroblasts)
  IC50: 1130 nM
[5]; 72 h, MTT assay
  GI50: 80 nM
[5]; Table 3, tumor cell model
  IC50: 79 nM
[6]
  IC50: 96 nM
[7]
  IC50: ~615 nM
[8]; 72 h, MTT assay
  GI50: 90 nM
[8]; Table 3, tumor cell model
  IC50: 89 nM
[9]; 72 h, MTT assay, read-out: GI50 U2OS
  GI50: 120 nM
[9]; Table 3, tumor cell model, read-out: IC50 U2OS (bone tumor)
  IC50: 122 nM
[10]
  IC50: 1080 nM
[11]; 72 h, MTT assay
  GI50: 170 nM
[11]; Table 3, tumor cell model
  IC50: 175 nM
[12]
  GI50: 2430 nM
[3]
  GI50: 480 nM
  Selectivity index RWPE-1: 6.9
[3]; Table 3, non tumoral cell model, read-out: IC50 RWPE1 (prostatic epithelial cells)
  IC50: 480 nM
[3]; [16]
  Specificity Prostate: RWPE1 (normal immortalized)/PC-3 (tumoral): 6.9
[3]; ratio of SI
  SI PC-3/RPWE-1 value, times higher than Auranofin: 69 times
  SI PC-3/RPWE-1 value, times higher than complex 3: 35 times
[13]; 72 h, MTT assay
  GI50: 110 nM
[13]; Table 3, tumor cell model
  IC50: 115 nM
[14]; 72 h, MTT assay
  GI50: 1620 nM
[14]; SI = GI50 (MC3T3)/GI50 (PC-3)
  Selectivity index MC3T3: 23.1
[14]; Table 3, non tumoral cell model, read-out: IC50 MC3-T3 (osteoblasts)
  IC50: 1620 nM
[14]; [16]
  Specificity Bone: MC3-T3 (normal immortalized)/U2OS (tumoral): 13.3

## C[C@@H]1CCC2[C@@H](C)[C@@H](OCCCCn3cc[n+](C)[c]3[Au-][c]3n(CCCCO[C@H]4O[C@@H]5O[C@]6(C)CCC7[C@H](C)CCC([C@H]4C)[C@]75OO6)cc[n+]3C)O[C@@H]3O[C@]4(C)CCC1[C@@]23OO4.[Cl-] (some centres unmarked) [Compound 2b]
[1]
  GI50: 42 nM
[2]
  GI50: 700 nM
  Selectivity index NIH3T3: 16.7
[3]
  GI50: 110 nM
  Selectivity index RWPE-1: 2.6

## CN1C=CN(c2ccc3ccccc3n2)[CH]1[Au-][CH]1N(C)C=CN1c1ccc2ccccc2n1 (centres unmarked) [Compound 3]
[15]
  Effect on activity of Nrf2: activate

## C[C@@H]1CC[C@H]2[C@@H](C)C(=O)O[C@@H]3O[C@@]4(C)CC[C@@H]1[C@]32OO4 [artemisinin]
[15]
  Effect on activity of Nrf2: activate
